This passage reports IC50 results from patent publication EP4782453A1 (Beyang Therapeutics Co., Ltd., priority 2023, dated 2025).

As usually defined, the IC50 is the concentration needed to halve the response being measured.

In one assay the target is T1, Menin-MLL (Homo sapiens, UniProt O00255).
T1 construct: His-Menin (M1-L615 end); purchased BIORTUS BP9210
T1 sequence (O00255 1-615 isoform O00255-1): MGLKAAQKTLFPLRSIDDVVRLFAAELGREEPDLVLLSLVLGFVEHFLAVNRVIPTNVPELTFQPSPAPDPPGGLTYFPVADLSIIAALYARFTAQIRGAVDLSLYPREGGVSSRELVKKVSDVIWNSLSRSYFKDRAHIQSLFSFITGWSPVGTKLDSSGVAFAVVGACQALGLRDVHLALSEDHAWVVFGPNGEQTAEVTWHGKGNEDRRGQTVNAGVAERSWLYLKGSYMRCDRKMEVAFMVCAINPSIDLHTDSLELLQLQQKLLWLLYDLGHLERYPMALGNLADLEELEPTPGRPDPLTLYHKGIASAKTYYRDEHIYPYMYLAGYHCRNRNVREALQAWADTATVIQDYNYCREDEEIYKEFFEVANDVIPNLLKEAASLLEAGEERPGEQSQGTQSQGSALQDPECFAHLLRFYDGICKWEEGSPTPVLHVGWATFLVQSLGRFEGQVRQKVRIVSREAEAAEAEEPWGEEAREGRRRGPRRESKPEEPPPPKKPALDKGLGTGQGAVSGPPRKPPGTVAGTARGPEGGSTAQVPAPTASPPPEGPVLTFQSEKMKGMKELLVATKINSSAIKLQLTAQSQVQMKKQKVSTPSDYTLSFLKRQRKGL
Nature of the assay: Inhibitory activity against Menin-MLL binding (fluorescence polarization). To be noted: Menin-MLL IC50, fluorescence polarization; 150 nM His-Menin, 15 nM FITC-MLL; 25°C for 60 min. As for the experimental part: • His-Menin (M1-L615 end), purchased from BIORTUS, Catalog Number: BP9210; and • FITC-MLL4-43, purchased from GenScript, Catalog Number: C491HFF190-3/PE1324.
In a 10 µL reaction solution (20 mM HEPES, pH 7.5, 50 mM NaCl, 1 mM DTT, 0.01% BSA) containing any compound from the examples, 150 nM His-Menin was added to a 384-well plate (Corning, Model: 4514). Each concentration was set up in duplicate wells. After centrifugation at 1000 RPM for 1 min, the plate was incubated at 25°C for 15 min. Then, 15 nM […] (20 mM HEPES, pH 7.5, 50 mM NaCl, 1 mM DTT, 0.01% BSA) was added to a 384-well plate. After centrifugation at 1000 RPM for 1 min, the reaction proceeded at 25°C for 60 min. Changes in fluorescence polarization were measured using a plate reader (PerkinElmer, Envision 2104). Based on the measured signals, the binding inhibition rate of the compound at each concentration was calculated, and the IC50 (half-maximal inhibitory concentration) of the compound was determined using statistical analysis software GraphPad Prism (GraphPad Software, Inc.) by means of a nonlinear fitting formula: 4-Parameter Logistic Model or Sigmoidal Dose-Response Model: Y = Bottom + (Top−Bottom)/(1 + 10^((LogIC50−X) × Hill Slope)), [formula] in which X indicates the logarithm of compound concentration, Y indicates a fluorescence polarization mP value, and Top and Bottom indicate the maximum and minimum readouts of fluorescence polarization mP values. Table 1: Inhibitory Activity of Compounds Against Menin-MLL Binding
A general note: In fluorescence polarisation assays a small probe gives low polarisation when free and higher when bound to something large.
Molecule `CCS(=O)(=O)N[C@H]1CC[C@H](CN2CC(c3cc(-c4ccc(F)cc4C(=O)N4CCOC[C@H]4C)c4cnn(C)c4c3)C2)CC1` [Example 159, N-[(1r,4r)-4-{[3-(4-{4-fluoro-2-[(3R)-3-methylmorpholin-4-carbonyl]phenyl}-1-methyl-1H-indazol-6-yl)azacyclobutan-1-yl]methyl}cyclohexyl]ethan-1-sulfonamide] registered an IC50 of 69 nM.
On to `CCN(C(=O)c1cc(F)ccc1-c1cc(N2CCN(CC[C@H]3CC[C@H](NS(=O)(=O)CC)CC3)CC2)cn2c(C)ncc12)C(C)C` [Compound 65, N-ethyl-5-fluoro-2-[3-methyl-6-(4-{2-[(1r,4r)-4-ethanesulfonamidocyclohexyl]ethyl}piperazine-1-yl)imidazo[1,5-a]pyridin-8-yl]-N-(isopropyl)benzamide], for which the IC50 worked out at 136 nM.
Still for that read-out and setting: then `CCS(=O)(=O)N(C)[C@H]1CC[C@H](CN2CC(c3cc(-c4ccc(F)cc4C(=O)N4CCOC[C@H]4C)c4cnn(C)c4c3)C2)CC1` [Example 174, N-methyl-N-[(1r,4r)-4-{[3-(4-{4-fluoro-2-[(3R)-3-methylmorpholin-4-carbonyl]phenyl}-1-methyl-1H-indazol-6-yl)azacyclobutan-1-yl]methyl}cyclohexyl]ethan-1-sulfonamide], with 125 nM.

The assay is the same for the next values; noted with them: fluorescence polarization; 150 nM His-Menin, 15 nM FITC-MLL; 25°C for 60 min; read-out: Menin-MLL IC50.
In the case of `CCN(C(=O)c1cc(F)ccc1-c1cc(C2CN([C@@H](CN3C[C@@H](O)[C@H](O)C3)C(C)C)C2)cn2c(C)ncc12)C(C)C` [Example 446-2, 2-(6-{1-[(2R)-1-[(3R,4R)-3,4-dihydroxylpyrrolidin-1-yl]-3-methylbutan-2-yl]azacyclobutan-3-yl}-3-methylimidazo[1,5-a]pyridin-8-yl)-N-ethyl-5-fluoro-N-(isopropyl)benzamide], the IC50 amounted to 44 nM.
Consider `CCN(C(=O)c1cc(F)ccc1-c1cc(C2CN(C(C[C@@H]3CN(C(=O)OC(C)(C)C)CCO3)C(C)C)C2)cn2c(C)ncc12)C(C)C` (stereo partly drawn) [Example 461, (2R)-2-{2-[3-(8-{2-[ethyl(isopropyl)aminoformyl]-4-fluorophenyl}-3-methylimidazo[1,5-a]pyridin-6-yl)azacyclobutan-1-yl]-3-methylbutyl}morpholin-4-tert-butyl carboxylate], for which the IC50 came to 43 nM.
As for `Cc1nc(F)c2c(-c3ccc(F)cc3C(=O)N3CCOC[C@H]3C)cc(C3CN([C@@H](C)C4CCN(C(=O)C5CC5)CC4)C3)cn12` [Example 299], the IC50 came out at 15 nM.
For the molecule `COCC1CN(CCC[C@@H](C(C)C)N2CC(c3cc(-c4ccc(F)cc4C(=O)N4CCOC[C@H]4C)c4cnn(C)c4c3)C2)C1` [Example 183-1], the IC50 came to 507 nM.
Same read-out and setting: then `CCN(C(=O)c1cc(F)ccc1-c1nc(C2CN(C(CCCN3CCN(CCO)CC3)C(C)C)C2)cn2c(C)ncc12)C(C)C` (stereo not shown) [Example 491, N-ethyl-5-fluoro-2-[6-(1-{6-[4-(2-hydroxyethyl)piperazin-1-yl]-2-methylhexan-3-yl}azacyclobutan-3-yl)-3-methylimidazo[1,5-a]pyrazin-8-yl]-N-(isopropyl)benzamide], with 130 nM; and `Cc1nc(F)c2c(-c3ccc(F)cc3C(=O)N3CCOC[C@H]3C)cc(C3CN([C@@H](CO[C@@H]4CCCN(C)C4)C(C)C)C3)cn12` [Example 297-2, (3R)-4-[5-fluoro-2-(1-fluoro-3-methyl-6-{1-[(2R)-3-methyl-1-{[(3R)-1-methylpiperidin-3-yl]oxy}butan-2-yl]azacyclobutan-3-yl}imidazo[1,5-a]pyridin-8yl)benzoyl]-3-methylmorpholine], with 13.5 nM.
The same measure, in the same setting: then `CCN(C(=O)c1cc(F)ccc1-c1cc(N2CCN(C(=O)[C@@H]3CCCNC3)CC2)cn2c(C)ncc12)C(C)C` [Example 124], with 80.5 nM; and `CCN(C(=O)c1cc(F)ccc1-c1cc(C2CN([C@H](CCCN3CCNC(=O)C3)C(C)C)C2)cn2c(C)ncc12)C(C)C` [Example 494], with 4.1 nM.
Regarding `C[C@@H]1COCCN1C(=O)c1cc(F)ccc1-c1cc(C2CN(CC3CCN(C(=O)CC#N)CC3)C2)cc2c1cnn2C` [Example 173], the IC50 was 118 nM.
On to `CC(=O)N1CCN(CCC[C@H](C(C)C)N2CC(c3cc(-c4ccc(F)cc4C(=O)N4CCOC[C@H]4C)c4c(F)nc(C)n4c3)C2)[C@H](C)C1` [Example 328], for which the IC50 is 16 nM.
`CCN(C(=O)c1cc(F)ccc1-c1cc(N2CCN(C(=O)[C@H]3CCCN3)CC2)cn2c(C)ncc12)C(C)C` [Example 106]: the concentration for half-maximal inhibition (IC50) stood at 153 nM.
Regarding `COC[C@@H]1CN(CCC[C@@H](C(C)C)N2CC(c3cc(-c4ccc(F)cc4C(=O)N(C(C)C)C(C)C)c4cnc(C)n4c3)C2)CCN1` [Example 505-1], the IC50 is 22 nM.
For the molecule `CCN(C(=O)c1cc(F)ccc1-c1cc(C2CN([C@H](C)C3CCN(C(C)=O)CC3)C2)cn2c(C)ncc12)C(C)C` [Example 281-2], the IC50 was determined as 79 nM.
In the case of `CCN(C(=O)c1cc(F)ccc1-c1cc(C2CN(C(CCCN3C[C@H]4C[C@@H]3CO4)C3(C)COC3)C2)cn2c(C)ncc12)C(C)C` (stereo partly drawn) [Example 485, N-ethyl-5-fluoro-2-(3-methyl-6-{1-[1-(3-methyloxacyclobutan-3-yl)-4-[(1R,4R)-2-oxa-5-azabicyclo[2.2.1]heptan-5-yl]butyl]azacyclobut-3-yl}imidazo[1,5-a]pyridin-8-yl)-N-(isopropyl)benzamide], the IC50 is 42 nM.
`CCN(C(=O)c1cc(F)ccc1-c1cc(C2CN([C@H](CCCN3CCN(C4(C(=O)N(C)C)COC4)CC3)C(C)C)C2)cn2c(C)ncc12)C(C)C` [Example 476, 3-{4-[(4R)-4-[3-(8-{2-[ethyl(isopropyl)aminoformyl]-4-fluorophenyl}-3-methylimidazo[1,5-a]pyridin-6-yl)azacyclobutan-1-yl]-5-methylhexyl]piperazin-1-yl}-N,N-dimethyloxacyclobutan-3-formamide]: the IC50 is 1.9 nM.
Turning to `CCN(C(=O)c1cc(F)ccc1-c1cc(C2(O)CN([C@H](CCCN3CCN(CCO)CC3)C(C)C)C2)cn2c(C)ncc12)C(C)C` [Example 464-1, N-ethyl-5-fluoro-2-(6-{3-hydroxyl-1-[(3R)-6-[4-(2-hydroxylethyl)piperazin-1-yl]-2-methylhexan-3-yl]azacyclobutan-3-yl}-3-methylimidazo[1,5-a]pyridin-8-yl)-N-(isopropyl)benzamide], the IC50 was found to be 15 nM.
Consider `CCS(=O)(=O)NC1CCC(CN2CCC(c3cc(-c4ccc(F)cc4C(=O)N4CCC(F)(F)CC4C)c4cnn(C)c4c3)C2)CC1` (stereo not shown) [Example 101, N-{4-[(3-{4-[2-(4,4-difluoro-2-methylpiperidin-1-carbonyl)-4-fluorophenyl]-1-methyl-1H-indazol-6-yl}pyrrolidin-1-yl)methyl]cyclohexyl}ethan-1-sulfonamide], for which the IC50 came to 45.5 nM.
Take `CCN(C(=O)c1cc(F)ccc1-c1cc(N2CCN(C(=O)[C@@H]3C[C@H](OC)CN3)CC2)cn2c(C)nc(Cl)c12)C(C)C` [Example 109]: the IC50 was found to be 96 nM.
Consider `CC(=O)N1CCN(CCC[C@H](C(C)C)N2CC(c3cc(-c4ccc(F)cc4C(=O)N4CCOC[C@H]4C)c4c(F)nc(C)n4c3)C2)CC1(C)C` [Example 339], for which the 50% inhibitory concentration (IC50) is 13 nM.
With `CCN(C(=O)c1cc(F)ccc1-c1cc(C2CN([C@H](CCCN3CCN(CCOC)C(=O)C3)C(C)C)C2)cn2c(C)ncc12)C(C)C` [Example 496], the half-inhibitory concentration (IC50) came to 3.8 nM.
For the molecule `Cc1nc(F)c2c(-c3ccc(F)cc3C(=O)N3CCOC[C@H]3C)cc(C3CN([C@H](CO[C@@H]4CCN(C)C4)C(C)C)C3)cn12` [Example 298, (3R)-4-[5-fluoro-2-(1-fluoro-3-methyl-6-{1-[(2S)-3-methyl-1-{[(3R)-1-methylpyrrolidin-3-yl]oxy}butan-2-yl]azacyclobutan-3-yl}imidazo[1,5-a]pyridin-8yl)benzoyl]-3-methylmorpholine], the half-inhibitory concentration (IC50) is 14.5 nM.
For `CCN(C(=O)c1cc(F)ccc1-c1cc(C2CN(C(COC)C(C)C)C2)cn2c(C)ncc12)C(C)C` (stereo not shown) [Example 414, N-ethyl-5-fluoro-2-{6-[1-(1-methoxy-3-methylbutan-2-yl)azacyclobutan-3-yl]-3-methylimidazo[1,5-a]pyridin-8-yl}-N-(isopropyl)benzamide], the IC50 is 11.8 nM.
